Measured values: the SangsterLogP compilation

| SMILES | logP |
| --- | --- |
| CCCCCCCCCCCC(=O)C(C)(C)C(=O)Nc1c(OC)cc(OC)cc1OC | 4.88 |
| CC(C)c1cccc(C(C)C)c1NC(=O)CC(=O)c1ccccc1 | 2.87 |
| CC(C)c1cccc(C(C)C)c1NC(=O)CC(CC(c1ccccc1)c1ccccc1)=NO | 3.93 |
| CCCCCCCCCCCC(=O)C(C)(C)C(=O)N(C)c1c(OC)cc(OC)cc1OC | 6.67 |
| CC(C)c1cccc(C(C)C)c1NC(=O)CC(=O)CCCCCCCCCCO | 4.2 |
| CC(C)c1cccc(C(C)C)c1NC(=O)CC(=O)C(c1ccccc1)c1ccccc1 | 3.96 |
| CCCCCCCCCCCC(=O)CC(=O)Nc1c(OC)cc(OC)cc1OC | 5.02 |
| CCCCCCCC1CC(C(=O)Nc2c(C(C)C)cccc2C(C)C)C(=O)O1 (stereo not given) | 4.72 |
| CC(C)c1cccc(C(C)C)c1NC(=O)CC(=O)C1(c2ccccc2)CCCC1 | 4.55 |
| CC(C)c1cccc(C(C)C)c1NC(=O)CC(O)CC(c1ccccc1)c1ccccc1 (stereo not given) | 4.01 |
